# Data published in US20250136548A1, “FUNCTIONALIZED ALKYLAMINES” (Terran Biosciences Inc., priority 2022, published 2025).
# Experiments:
# 5-HT2A receptor = target: T1, 5-HT2A receptor (Homo sapiens, UniProt P28223); assay: Calcium mobilization assay, agonist format, 5-HT2A receptor; format: cell-based; conditions: agonist mode, % activity relative to MAX control ligand (5-HT positive control), read-out: 5-HT2A agonist efficacy @ 1 μM
# T1 construct: host or cells: unnamed cell lines
# Experimental: (§1) • Protocol: in vitro testing at select 5-hydroxytryptamine (5-HT; serotonin) receptors was conducted.
# (§2) Assay Design: Calcium Mobilization
# (§3) • 1. Cell lines were expanded from freezer stocks according to standard procedures. • 2. Cells were seeded in a total volume of 20 μL into black-walled, clear-bottom, Poly-D-lysine coated 384-well microplates and incubated at 37° C. for the appropriate time prior to testing.
# (§4) • 1. Assays were performed in 1×Dye Loading Buffer consisting of 1× Dye, 1× Additive A and 2.5 mM Probenecid in HBSS/20 mM Hepes. Probenicid was prepared fresh. • 2. Cells were loaded with dye prior to testing. Media was aspirated from cells and replaced with 20 μL Dye Loading Buffer. • 3. Cells were incubated for 30-60 minutes at 37° C.
# (§5) • 1. For agonist determination, cells were incubated with sample to induce response. • 2. After dye loading, cells were removed from the incubator and 10 μL HBSS/20 mM Hepes was added. 3× vehicle was included in the buffer when performing agonist dose curves to define the EC80 for subsequent antagonist assays. Cells were incubated for 30 minutes at room temperature in the dark to equilibrate plate temperature. • 3. Intermediate dilution of sample stocks was performed to generate 4× sample in assay buffer. • 4. Compound agonist activity was measured on a FLIPR Tetra (MDS). Calcium mobilization was monitored for 2 minutes and 10 μL 4× sample in HBSS/20 mM Hepes was added to the cells 5 seconds into the assay.
# (§6) • 1. Compound activity was analyzed using CBIS data analysis suite (ChemInnovation, CA). • 2. For agonist mode assays, percentage activity is calculated using the following formula:
# (§7) % Activity=100%×(mean RFU of test sample−mean RFU of vehicle control)/(mean MAX RFU control ligand −mean RFU of vehicle control). • 3. For positive allosteric mode assays, percentage modulation was calculated using the following formula: […]
# 5-HT2B receptor = target: T2, 5-HT2B receptor (Homo sapiens, UniProt P41595); assay: Calcium mobilization assay, agonist format, 5-HT2B receptor; format: cell-based; conditions: agonist mode, % activity relative to MAX control ligand (5-HT positive control), read-out: 5-HT2B agonist efficacy @ 1 μM
# T2 construct: host or cells: unnamed cell lines
# T2 sequence (P41595 whole entry): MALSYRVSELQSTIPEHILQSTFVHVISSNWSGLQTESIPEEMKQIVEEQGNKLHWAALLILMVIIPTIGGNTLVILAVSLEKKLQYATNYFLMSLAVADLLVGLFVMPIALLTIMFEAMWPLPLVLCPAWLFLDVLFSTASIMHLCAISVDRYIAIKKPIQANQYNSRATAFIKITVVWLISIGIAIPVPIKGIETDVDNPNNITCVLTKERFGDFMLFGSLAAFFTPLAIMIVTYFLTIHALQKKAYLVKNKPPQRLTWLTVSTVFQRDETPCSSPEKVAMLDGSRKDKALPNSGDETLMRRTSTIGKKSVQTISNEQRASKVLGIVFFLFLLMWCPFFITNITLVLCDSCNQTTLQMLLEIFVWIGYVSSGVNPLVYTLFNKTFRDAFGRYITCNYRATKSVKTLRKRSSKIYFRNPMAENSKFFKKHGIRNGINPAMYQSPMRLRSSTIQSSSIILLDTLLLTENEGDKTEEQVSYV
# Experimental: as §1, §2, §3, §4, §5, §6, §7
# T1 sequence (P28223 whole entry): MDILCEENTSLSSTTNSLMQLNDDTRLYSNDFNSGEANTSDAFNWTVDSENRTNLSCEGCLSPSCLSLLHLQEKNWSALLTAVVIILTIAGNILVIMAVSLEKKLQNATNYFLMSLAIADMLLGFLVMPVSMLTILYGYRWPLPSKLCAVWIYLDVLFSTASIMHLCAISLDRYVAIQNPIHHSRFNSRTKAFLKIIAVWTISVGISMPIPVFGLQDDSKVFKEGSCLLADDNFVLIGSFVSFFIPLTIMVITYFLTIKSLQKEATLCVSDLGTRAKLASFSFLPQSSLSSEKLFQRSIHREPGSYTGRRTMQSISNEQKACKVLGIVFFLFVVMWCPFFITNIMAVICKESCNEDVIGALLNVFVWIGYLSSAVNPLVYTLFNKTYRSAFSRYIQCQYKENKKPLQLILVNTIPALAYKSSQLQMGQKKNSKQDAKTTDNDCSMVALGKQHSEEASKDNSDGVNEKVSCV
Compound,activation at 1 µM (5-HT2A receptor),activation at 1 µM (5-HT2B receptor)
"OC1CCN(CCn2ccc3cc(F)c(F)cc32)C1 (stereo not shown) [1-[2-(5,6-Difluoroindol-1-yl)ethyl]pyrrolidin-3-ol]",2%,-0.7%
"COc1ccc2c3c([nH]c2c1)CCNCC3 [8-methoxy-1,2,3,4,5,6-hexahydroazepino[4,5-b]indole, reference compound]",71.7%,-0.8%
CN(CCO)CCn1ccc2ccc(F)cc21 [2-[2-(6-Fluoroindol-1-yl)ethyl-methyl-amino]ethanol],8.3%,0.2%
"CC1(O)CCN(CCc2c[nH]c3cc(F)c(F)cc23)C1 (stereo not shown) [1-[2-(5,6-difluoro-1H-indol-3-yl)ethyl]-3-methyl-pyrrolidin-3-ol]",1.9%,-1%
CN(CCc1c[nH]c2ccc(F)cc12)CCS(C)(=O)=O [2-(5-fluoro-1H-indol-3-yl)-N-methyl-N-(2-methylsulfonylethyl)ethanamine],27.3%,-0.5%
CN(CCO)CCn1ccc2cc(F)ccc21 [2-[2-(5-Fluoroindol-1-yl)ethyl-methyl-amino]ethanol],-0.2%,-1.4%
OC1CCN(CCc2c[nH]c3ccc(F)cc23)C1 (stereo not shown) [1-[2-(5-fluoro-1H-indol-3-yl)ethyl]pyrrolidin-3-olethanamine],46%,-0.7%
OC1CCN(CCn2ccc3cc(F)ccc32)C1 (stereo not shown) [1-[2-(5-Fluoroindol-1-yl)ethyl]pyrrolidin-3-ol],-0.2%,-1.2%
"COc1ccc2c3c([nH]c2c1)CCN(C)CC3 [TBG, 8-methoxy-3-methyl-1,2,3,4,5,6-hexahydroazepino[4,5-b]indole, reference compound]",18.2%,-2.2%
CC1(O)CCN(CCc2c[nH]c3ccc(F)cc23)C1 (stereo not shown) [1-[2-(5-fluoro-1H-indol-3-yl)ethyl]-3-methyl-pyrrolidin-3-ol],7.5%,-1.5%
CC1(O)CCN(CCc2c[nH]c3cc(F)ccc23)C1 (stereo not shown) [1-[2-(6-fluoro-1H-indol-3-yl)ethyl]-3-methyl-pyrrolidin-3-ol],-0.3%,-1.1%
CN(CCO)CCc1c[nH]c2ccc(F)cc12 [2-[2-(5-Fluoro-1H-indol-3-yl)ethyl-methyl-amino]ethanol],47.1%,1.2%
CC1(O)CCN(CCn2ccc3cc(F)ccc32)C1 (stereo not shown) [1-[2-(5-Fluoroindol-1-yl)ethyl]-3-methyl-pyrrolidin-3-ol],-0.3%,-1.1%
CC1(O)CCN(CCn2ccc3ccc(F)cc32)C1 (stereo not shown) [1-[2-(6-Fluoroindol-1-yl)ethyl]-3-methyl-pyrrolidin-3-ol],0%,-1.3%
OC1CCN(CCn2ccc3ccc(F)cc32)C1 (stereo not shown) [1-[2-(6-Fluoroindol-1-yl)ethyl]pyrrolidin-3-ol],2.5%,-2.8%
"CN(CCO)CCn1ccc2cc(F)c(F)cc21 [2-[2-(5,6-Difluoroindol-1-yl)ethyl-methyl-amino]ethanol]",6.2%,0.1%
"CN(CCn1ccc2cc(F)c(F)cc21)CCS(C)(=O)=O [2-(5,6-Difluoroindol-1-yl)-N-methyl-N-(2-methylsulfonylethyl)ethanamine]",-0.5%,-1.3%
CN(CCn1ccc2cc(F)ccc21)CCS(C)(=O)=O [2-(5-Fluoroindol-1-yl)-N-methyl-N-(2-methylsulfonylethyl)ethanamine],-0.8%,-2.7%
"CC1(O)CCN(CCn2ccc3cc(F)c(F)cc32)C1 (stereo not shown) [1-[2-(5,6-Difluoroindol-1-yl)ethyl]-3-methyl-pyrrolidin-3-ol]",-0.1%,-2.5%
CN(CCn1ccc2ccc(F)cc21)CCS(C)(=O)=O [2-(6-Fluoroindol-1-yl)-N-methyl-N-(2-methylsulfonylethyl)ethanamine],-1.2%,-1.3%
